According to patent US20110045139A1, “FERMENTED SAUSAGE AND METHODS OF MAKING SAME” (priority 2009, published 2011):
≈ marks a conversion by molar mass, not a printed value. Read-outs that look alike come from different tables or passages of the source.

How the values were obtained:
E. coli O157:H7 [1] = test: In vitro formation of isothiocyanates by myrosinase, viable counts; format: cell-based, Escherichia coli O157:H7; conditions: glucosinolate 2.5 mM plus myrosinase 0.2 U/tube, MHB with sausage ingredients
Staphylococcus carnosus = test: microbe, parasite or virus in culture; format: cell-based; conditions: pH 5.5
Pediococcus pentosaceus = test: microbe, parasite or virus in culture; format: cell-based; conditions: pH 5.5
[2] = test system: E. coli O157:H7 (5-strain cocktail); test: microbe, parasite or virus in culture; format: cell-based, Escherichia coli O157:H7; conditions: for MBC / Growth inhibition (p < 0.05): pH 5.5
E. coli O157:H7 [3] = conditions: pH 4.9; cited from earlier work
[4] = test system: Escherichia coli, Staphylococcus aureus, Campylobacter jejuni, Pseudomonas aeruginosa, Salmonella Enteritidis, Listeria monocytogenes, Shigella boydii and …; conditions: cited from earlier work
E. coli O157:H7 [5] = test: Minimum inhibitory concentration at dry-cured sausage pH; format: cell-based, Escherichia coli O157:H7; conditions: pH 5.5

## C=CCC(=NOS(=O)(=O)O)S[C@@H]1O[C@H](CO)[C@@H](O)[C@H](O)[C@H]1O (stereo in doubt) [sinigrin]
E. coli O157:H7 [1]
  time after which E. coli was not detectable: 2 days

## C=CCN=C=S [AIT, allyl isothiocyanate]
Staphylococcus carnosus; Staphylococcus carnosus, 18 h
  MBC: 1040 µM (≈ 103 µg/mL)
Staphylococcus carnosus
  Growth inhibition (p < 0.05): 0.26 mM
Pediococcus pentosaceus; Pediococcus pentosaceus, 18 h
  MBC: 20800 µM (≈ 2060 µg/mL)
Pediococcus pentosaceus
  Growth inhibition (p < 0.05): 10.40 mM
[2]; Escherichia coli, 18 h
  MBC: 1040 µM (≈ 103 µg/mL)
[2]
  Growth inhibition (p < 0.05): 0.26 mM
E. coli O157:H7 [3]
  minimum inhibitory concentration: ~250 µM (≈ 24.8 µg/mL)

## O=S(=O)(O)O/N=C(/Cc1ccc(O)cc1)S[C@@H]1O[C@H](CO)[C@@H](O)[C@H](O)[C@H]1O [sinalbin]
E. coli O157:H7 [1]
  time after which E. coli was not detectable: 3 days

## OCc1ccc(O)cc1 [ρ-HBA, ρ-hydroxybenzyl alcohol]
[2]
  inhibitory activity against E. coli O157:H7: very weak
  Growth inhibition (p < 0.05): 20.14 mM

## Oc1ccc(CN=C=S)cc1 [ρ-HBIT, ρ-hydroxybenzyl isothiocyanate]
Staphylococcus carnosus
  Growth inhibition (p < 0.05): 0.3 mM
  MBC: 590 µM (≈ 97.5 µg/mL)
Pediococcus pentosaceus
  Growth inhibition (p < 0.05): 1.48 mM
  MBC: 5920 µM (≈ 978 µg/mL)
[4]
  bactericidal concentration: 0.35 to 2.13 mM
E. coli O157:H7 [5]
  minimum inhibitory concentration: ~600 µM (≈ 99.1 µg/mL)
[2]
  Growth inhibition (p < 0.05): 0.59 mM
  MBC: 1480 µM (≈ 245 µg/mL)
